Each compound was assayed on bacterial strain LF82 binding to the glycoprotein BSA-(Mannose)3 (assay: Bacterial Binding Assay (BBA)). Conditions: read-out: Bacterial Binding Assay IC50.
Type: cell-based, Escherichia coli
Text: The purpose of the Bacterial Binding Assay (BBA) is to determine the inhibition activity of selective FimH antagonists on the bacterial strain LF82 binding to the glycoprotein BSA-(Mannose)3.
Below is a list of the Materials used to run the BBA are described below. • 1. LB broth: Supplier: Gibco, #10855 • 2. D-PBS: Supplier: Wisent, #311-425-CL • 3. LB agar plates • 4. 96-well black plate (high binding): Supplier: Costar, #3925 • 5. TopSeal™-A adhesive sealing films; Supplier PerkinElmer, #6005185 • 6. Carbonate-bicarbonate buffer pH 9.6 tablets, Supplier: Medicago, #09-8922-24 • 7. Water, Supplier: Gibco, #15230-162 • 8. Bovine serum albumin (BSA): Supplier: Sigma, #A-7888 • 9. (Man)-3-BSA (α1-3, α1-6 Mannotriose-BSA, 1 mg), V-Labs, #NGP1336, lot#HGDX37-169-1 • 10. Tween 20: Supplier: Sigma, #P9416 • 11. Bright-Glo Luciferase Assay System: Supplier: Promega, #E2610 • 12. LF82/Luciferase strain: Invasive ability of an Escherichia coli strain isolated from the ileal mucosa of a patient with Crohn's disease. Boudeau J, Glasser A L, Masseret E, Joly B, Darfeuille-Michaud A, Infect Immun. 1999, 67(9), 4499-509
Solutions and buffers used to run the BBA are described below. • 1. 0.04M carbonate-bicarbonate buffer (coating buffer) • 2. […] 1 mg of (Man)-3-BSA in 25 mL of water. • 3. 4000 ng/mL BSA • 4. 40 ng/mL BSA • 5. 1 μg/mL BSA-(Man)3: 150 μL of 40 ng/mL BSA-(Man)3+5.85 mL of 40 ng/mL BSA • 6. 0.5 μg/mL BSA-(Man)3 in 0.02M carbonate-bicarbonate buffer. • 7. 20 ng/mL BSA in 0.02M carbonate-bicarbonate buffer • 8. Blocking buffer (2% BSA/DPBS): 1 g of BSA in 50 mL D-PBS • 9. 2× binding buffer (0.2% BSA/D-PBS): 5 mL of blocking buffer+45 mL D-PBS. • 10. Washing buffer (D-PBS/0.01% Tween 20): 10 μL of Tween 20 in 100 mL D-PBS. • 11. 1× Bright-Glo Luciferase substrate:Dilute 1:1 the Bright-Glo Luciferase Assay System with D-PBS The experimental protocol to run the BBA is described below.
Overnight culture of LF82/Luciferase strain: Into two Falcon 50 mL tubes, add 20 mL of LB+20 μL of 50 mg/mL Kanamycin and inoculate with a loop from glycerol stock of the LF82/Luciferase strain. Incubate overnight at 37° C. with no shaking.
Glycoprotein coating of 96-well plates: Add 100 μL/well of 0.5-2 μg/mL BSA-(Man)3. 20 μg/mL BSA is used as the control background. Seal plate using an adhesive sealing film and incubate overnight at room temperature. Wash the 96-well plate three times with 150 μL/well of D-PBS, add 170 μL/well of blocking solution and incubate 45 min (minimum) at room temperature.
Preparation of bacterial suspension: Mix the two cultures tubes (40 mL) and perform a 1:10 dilution in LB (900 μl LB+100 μl culture. Measure optical density (OD) of the bacterial cultures. OD1 ˜5×10^8 cells/mL. Centrifuge LF82 culture for 20 min at 3500 rpm at room temperature. Re-suspend bacterial pellet in D-PBS and centrifuge again for 20 min at 3500 rpm. Re-suspend bacterial pellet in D-PBS to obtain a bacterial concentration of 2×10^9 bacteria/mL. Dilute 1/10 in D-PBS to obtain a final bacterial concentration of 2×10^8 bacteria/mL (=107 bacteria/50 μL). Perform 1/10 serial dilutions in LB of each bacterial suspension, plate 10 μL of dilutions on LB agar plates (final dilutions of 10^−7) and incubate overnight at 37° C. and count CFUs to determine the actual bacteria density in the assay.
Bacterial binding assay: Add 147 μL 2× binding buffer to compound plate (containing 3 μL of compound). After blocking step is performed (at least 45 min), wash plates three times with 200 μL/well of D-PBS. With a 100 μL multichannel manual pipettor, add 50 μL/well of compound diluted in 2× binding buffer. With a 100 μL multichannel manual pipettor, add 50 μL/well of bacterial suspension. Agitate at slow speed for 1 min and incubate 40-75 min at room temperature. Wash 5 times with 150 μL/well of washing buffer and then once with D-PBS. Add 100 μL/well of 1× Bright-Glo Luciferase substrate. […]
Compound `CNC(=O)c1cc(-c2ccc(O[C@H]3O[C@H](CO)[C@@H](O)[C@H](O)[C@]3(C)O)c(Cl)c2)ccc1F` [Compound 55] has an IC50 of 20 ± 0.5 nM. Work on `OC[C@H]1O[C@@]2(CCc3cc(O)ccc3O2)[C@@H](O)[C@@H](O)[C@@H]1O` [Example 124, (2R,3′S,4′S,5′S,6′R)-6′-(hydroxymethyl)spiro[chromane-2,2′-tetrahydropyran]-3′,4′,5′,6-tetrol] yielded an IC50 of 650 ± 550 nM. In the case of `COc1c(F)cccc1-c1ccc(O[C@H]2O[C@H](CO)[C@@H](O)[C@H](O)[C@]2(C)O)c(C)c1` [Compound 90], the IC50 is reported as 83 ± 3 nM. `COc1cc(F)ccc1-c1ccc(O[C@H]2O[C@H](CO)[C@@H](O)[C@H](O)[C@]2(C)O)c(C)c1` [Compound 91] showed an IC50 of 92 ± 27 nM. `OC[C@H]1O[C@@]2(CCc3cc(-c4cncc(-c5ccc6c(c5)CC[C@]5(O6)O[C@H](CO)[C@@H](O)[C@H](O)[C@@H]5O)c4)ccc3O2)[C@@H](O)[C@@H](O)[C@@H]1O` [Example 129, (2R,3′S,4′S,5′S,6′R)-6′-(hydroxymethyl)-6-[5-[(2R,3′S,4′S,5′S,6′R)-3′,4′,5′-trihydroxy-6′-(hydroxymethyl)spiro[chromane-2,2′-tetrahydropyran]-6-yl]-3-pyridyl]spiro[chromane-2,2′-tetrahydropyran]-3′,4′,5′-triol] was tested, and the IC50 was 11 ± 6 nM. Work on `CNC(=O)c1cccc(-c2ccc3c(c2)CC[C@]2(O3)O[C@H](CO)[C@@H](O)[C@H](O)[C@@H]2O)c1` [compound 33] yielded an IC50 of 27 ± 8 nM. `CNC(=O)c1cccc(-c2cccc(O[C@H]3O[C@H](CO)[C@@H](O)[C@H](O)[C@]3(C)O)c2Cl)c1` [Compound 46] gave an IC50 of 126 ± 38 nM. For `CNC(=O)c1cccc(-c2ccc(O[C@H]3O[C@H](CO)[C@@H](O)[C@H](O)[C@@]3(O)COCCOCc3ccccc3)c(C)c2)c1` [Compound 49], the IC50 was 280 ± 20 nM. Work on `CNC(=O)c1cccc(-c2ccc(O[C@H]3O[C@H](CO)[C@@H](O)[C@H](O)[C@@]3(O)CNC(C)=O)c(C)c2)c1` [Compound 52] yielded an IC50 of 48 ± 10 nM. For `CNC(=O)c1cc(F)cc(-c2ccc(O[C@H]3O[C@H](CO)[C@@H](O)[C@H](O)[C@]3(C)O)c(C)c2)c1` [Compound 73], the IC50 was 16 ± 5 nM. Compound `Cc1cc(-c2ccc(F)cc2F)ccc1O[C@H]1O[C@H](CO)[C@@H](O)[C@H](O)[C@]1(C)O` [Compound 75] has an IC50 of 38 ± 18 nM. Work on `COc1cc(Cl)ccc1-c1ccc(O[C@H]2O[C@H](CO)[C@@H](O)[C@H](O)[C@]2(C)O)c(C)c1` [Compound 81] yielded an IC50 of 185 ± 15 nM. In the case of `Cc1cc(C#Cc2ccc(O[C@H]3O[C@H](CO)[C@@H](O)[C@H](O)[C@]3(C)O)c(C)c2)ccc1O[C@H]1O[C@H](CO)[C@@H](O)[C@H](O)[C@]1(C)O` [Example 117, (2R,3S,4S,5S,6R)-6-(hydroxymethyl)-3-methyl-2-[2-methyl-4-[2-[3-methyl-4-[(2R,3S,4S,5S,6R)-3,4,5-trihydroxy-6-(hydroxymethyl)-3-methyl-tetrahydropyran-2-yl]oxy-phenyl]ethynyl]phenoxy]tetrahydropyran-3,4,5-triol], the IC50 is reported as 15 ± 8 nM. In the case of `Cc1cc(-c2ccc(F)c(C(=O)N3CCCC3)c2)ccc1O[C@H]1O[C@H](CO)[C@@H](O)[C@H](O)[C@]1(C)O` [Compound 85], the IC50 is reported as 30 ± 8 nM. In the case of `COc1cc(-c2ccc(O[C@H]3O[C@H](CO)[C@@H](O)[C@H](O)[C@]3(C)O)c(OC)c2)ccc1O[C@H]1O[C@H](CO)[C@@H](O)[C@H](O)[C@]1(C)O` [Example 109, (2R,3S,4S,5S,6R)-6-(hydroxymethyl)-2-[2-methoxy-4-[3-methoxy-4-[(2R,3S,4S,5S,6R)-3,4,5-trihydroxy-6-(hydroxymethyl)-3-methyl-tetrahydropyran-2-yl]oxy-phenyl]phenoxy]-3-methyl-tetrahydropyran-3,4,5-triol], the IC50 is reported as 8 ± 4 nM. Compound `Cc1cc(-c2cccc(C(=O)N3CCN(C)CC3)c2)ccc1O[C@H]1O[C@H](CO)[C@@H](O)[C@H](O)[C@]1(C)O` [Compound 68] has an IC50 of 26 ± 4 nM. `Cc1cc(-c2cc(C#N)ccc2C)ccc1O[C@H]1O[C@H](CO)[C@@H](O)[C@H](O)[C@]1(C)O` [Compound 101] was tested, and the IC50 was 1180 ± 215 nM. Work on `CNC(=O)c1cccc(-c2ccc(O[C@H]3O[C@H]([C@@H](C)O)[C@@H](O)[C@H](O)[C@@H]3O)c(C)c2)c1` [compound 29] yielded an IC50 greater than 10000 nM. Compound `Cc1cc(-c2cc(F)cc(F)c2)ccc1O[C@H]1O[C@H](CO)[C@@H](O)[C@H](O)[C@]1(C)O` [Compound 76] has an IC50 of 24 ± 3 nM. Work on `CNC(=O)c1cccc(-c2ccc(O[C@H]3O[C@H](CO)[C@@H](O)[C@H](O)[C@@]3(O)CO)c(C)c2)c1` [Compound 24] yielded an IC50 of 19 ± 3 nM. `CNC(=O)c1cccc(-c2ccc(O[C@H]3O[C@H](CO)[C@@H](O)[C@H](O)[C@@]3(O)COCc3ccccc3)c(C)c2)c1` [Compound 23] showed an IC50 of 115 ± 25 nM. Compound `CCc1cc(-c2ccc(O[C@H]3O[C@H](CO)[C@@H](O)[C@H](O)[C@]3(C)O)c(CC)c2)ccc1O[C@H]1O[C@H](CO)[C@@H](O)[C@H](O)[C@]1(C)O` [Example 110, (2R,3S,4S,5S,6R)-2-[2-ethyl-4-[3-ethyl-4-[(2R,3S,4S,5S,6R)-3,4,5-trihydroxy-6-(hydroxymethyl)-3-methyl-tetrahydropyran-2-yl]oxy-phenyl]phenoxy]-6-(hydroxymethyl)-3-methyl-tetrahydropyran-3,4,5-triol] has an IC50 of 3 ± 1 nM. `CC(C)c1cc(-c2ccc(O[C@H]3O[C@H](CO)[C@@H](O)[C@H](O)[C@]3(C)O)c(C(C)C)c2)ccc1O[C@H]1O[C@H](CO)[C@@H](O)[C@H](O)[C@]1(C)O` [Example 115, (2R,3S,4S,5S,6R)-6-(hydroxymethyl)-2-[2-isopropyl-4-[3-isopropyl-4-[(2R,3S,4S,5S,6R)-3,4,5-trihydroxy-6-(hydroxymethyl)-3-methyl-tetrahydropyran-2-yl]oxy-phenyl]phenoxy]-3-methyl-tetrahydropyran-3,4,5-triol] showed an IC50 of 4 ± 0.6 nM. `CNC(=O)c1cccc(-c2ccc(O[C@H]3O[C@H](CO)[C@@H](O)[C@H](O)[C@]3(C)O)c(F)c2)c1` [Example 16, 3-[3-fluoro-4-[(2R,3S,4S,5S,6R)-3,4,5-trihydroxy-6-(hydroxymethyl)-3-methyl-tetrahydropyran-2-yl]oxy-phenyl]-N-methyl-benzamide] was tested, and the IC50 was 67 ± 18 nM. Compound `Cc1cc(-c2cc(F)cc(Cl)c2)ccc1O[C@H]1O[C@H](CO)[C@@H](O)[C@H](O)[C@]1(C)O` [Compound 78] has an IC50 of 94 ± 6 nM. With `Cc1ccc(-c2ccc(C)c(O[C@H]3O[C@H](CO)[C@@H](O)[C@H](O)[C@]3(C)O)c2)cc1O[C@H]1O[C@H](CO)[C@@H](O)[C@H](O)[C@]1(C)O` [Example 113, (2R,3S,4S,5S,6R)-6-(hydroxymethyl)-3-methyl-2-[2-methyl-5-[4-methyl-3-[(2R,3S,4S,5S,6R)-3,4,5-trihydroxy-6-(hydroxymethyl)-3-methyl-tetrahydropyran-2-yl]oxy-phenyl]phenoxy]tetrahydropyran-3,4,5-triol] the IC50 was 15 ± 11 nM. `CNC(=O)c1cccc(-c2ccc(O[C@H]3O[C@H](CO)[C@@H](O)[C@H](O)[C@]3(C)O)cc2C(F)(F)F)c1` [Compound 43] was tested, and the IC50 was 785 ± 474 nM. With `CNC(=O)c1ccc(CCO[C@@]2(C)O[C@H](CO)[C@@H](O)[C@H](O)[C@@H]2O)cc1` [compound 35] the IC50 was 1800 ± 300 nM.
